{"source": "patent US7939567B2", "about": "“Dextromethorphan-based method for treating acne” (Blue Blood Biotech Corp., priority 2006, dated 2011)", "key": {"IL-6": {"system": "IL-6", "experiment": "LPS-induced macrophage release of IL-6 (THP-1, ELISA)", "assay_type": "cell-based, human", "conditions": "pretreated 1 hour, various concentrations, then LPS 24 hours", "procedure": "(§1) The monocytic THP-1 cells were cultured and differentiated into macrophages. The macrophages were pretreated with various concentrations of Dextromethophan or naloxone for 1 hour and subsequently incubated with lipopolysaccharide (LPS) for 24 hours.\n(§2) RPMI 1640 medium, phorbol 12-myristate-13-acetate (PMA), LPS (Escherichia coli 0111:B4) and naloxone were purchased from Sigma. The human THP-1 monocytic cell line was purchased from Food Industry Research and Development Institute, Hsin Chu, Taiwan. Levels of tumor necrosis factor-α (TNF-α), interleukin-6 (IL-6) and monocyte chemoattractant protein-1 (MCP-1) in medium were determined with monoclonal antibody based ELISA kits purchased from R&D Systems (Minneapolis, Minn., USA), and all animal experiments were approved by the Institutional Animal Care and Use Committee.\n(§3) The THP-1 cells were grown in RPMI-1640 medium containing 10% fetal bovine serum at 37° C. in 5% CO2. […] The levels of TNF-α, IL-6 and MCP-1 in the supernatants were determined using ELISA kits.\nThe inflammatory reaction can be inhibited by dextromethorphan at less than 0.01 μM. The THP-1 cell treated with LPS at 1 Unit/ml in the presence of dextromethorphan for 24 hrs and the TNF-α and IL-6 released in the culture medium was measured with ELISA (FIG. 1). […] The results are expressed as mean±SD of 3 experiments. ** p<0.01 and *** p<0.001 are compared with the LPS-treated cultures. […]"}, "P. acnes": {"system": "P. acnes", "experiment": "DM disc diffusion on P. acnes lawn", "assay_type": "cell-based, Propionibacterium acnes", "conditions": "37° C., 96 hours", "procedure": "Spread 0.1 ml medium including bacteria cells which OD595 value was about 0.1×10^6 CFU/ml onto RCM agar plate. Pasted 0.8 cm filter paper and dropped 20 μl of DM into it. Bacteria were cultured under anaerobic at 37° C. for 96 hours and the size of the antibiotic circle was measured."}, "MCP-1": {"system": "MCP-1", "experiment": "LPS-induced macrophage release of MCP-1 (THP-1, ELISA)", "assay_type": "cell-based, human", "conditions": "pretreated 1 hour, various concentrations, then LPS 24 hours", "procedure": "as §1, §2\nas §3, with “CO2. The cells were differentiated to macrophages after treatment with 100 nM PMA to the culture for 24 hours.” for “CO2.”\n(§4) Effect of naloxone treatment on the LPS-induced macrophage release of TNF-α (A), IL-6 (B) and MCP-1 (C). […] The results are expressed as mean±SD of 3 experiments. * p<0.05; ** p<0.01; *** p<0.001 compared with the LPS-treated cultures (FIG. 2)."}, "[1]": {"conditions": "humans, oral dosage form, either alone or with quinidine; cited from earlier work"}, "Bacteroides fragilis": {"system": "Bacteroides fragilis", "experiment": "MIC test of B. fragilis (thioglycollate broth)", "assay_type": "cell-based", "design": "key: +: Growth Inhibition; —: No Growth Inhibition", "conditions": "anaerobic, 24 h", "procedure": "Bacteroides fragilis growing in 18-24 hours in the anaerobic thioglycollate broth was used to formulate the suspension of bacteria cells of McFarland 0.5. Diluted 0.5 g/ml DMSO stock solution with anaerobic Thioglycollate broth. Added 1000 μl anaerobic Thioglycollate broth into 1000 μl of DM diluent with 1:1 ratio, and then put into the anaerobic incubator to incubate for 24 h."}, "TNF-α": {"system": "TNF-α", "experiment": "LPS-induced macrophage release of TNF-α (THP-1, ELISA)", "assay_type": "cell-based, human", "conditions": "for concentration of TNF-α in the medium of THP-1 cells after LPS stimulation: pretreated 1 hour, various concentrations, then LPS 24 hours", "procedure": "as §1, §2\nThe THP-1 cells were grown in RPMI-1640 medium containing 10% fetal bovine serum at 37° C. in 5% CO2. The cells were differentiated to macrophages after treatment with 100 nM PMA to the culture for 24 hours. The cell suspension (5×10^5) was added in 0.5 mL into each well of the tissue culture plates. LPS was dissolved in sterile water and stored at −70[…] in aliquots. In treatment group, the THP-1 cell culture was pretreated for 1 hour with various concentrations of dextromethorphan or naloxone and followed by treatment with 10 μg/mL LPS for up to 24 hours. […] The levels of TNF-α, IL-6 and MCP-1 in the supernatants were determined using ELISA kits.\nThe inflammatory reaction can be inhibited by dextromethorphan at less than 0.01 μM. The THP-1 cell treated with LPS at 1 Unit/ml in the presence of dextromethorphan for 24 hrs and the TNF-α and IL-6 released in the culture medium was measured with ELISA (FIG. 1). […] The results are expressed as mean±SD of 3 experiments. ** p<0.01 and *** p<0.001 are compared with the LPS-treated cultures.\nas §4"}, "E. coli": {"system": "E. coli", "experiment": "DM disc diffusion on E. coli lawn", "assay_type": "cell-based", "conditions": "37° C., 96 hours", "procedure": "Base for antimicrobial disk diffusion Susceptibility Testing is made of Mueller Hinton II agar obtained from Becton, Dickinson and Company, France.\n(§5) Prepared Mueller-Hinton-II-agar by suspending 38 g of the powder in 1L of double-distilled water. Autoclaved the agar at 121° C. for 15 min. t The agar was poured into each agar plate and waited for solidifying. E. coli of 1×10^5 CFU in 100 μl medium was spread on to the agar plate and were grown for 96 hours."}, "Staphylococcus aureaus": {"system": "Staphylococcus aureaus", "experiment": "DM disc diffusion on S. aureus lawn", "assay_type": "cell-based", "conditions": "S. aueaus lawn, 37° C., 96 hours", "procedure": "Based for antimicrobial disk diffusion Susceptibility Testing is Mueller Hinton II agar obtained from Becton, Dickinson and Company, France.\nas §5, with “min.” for “min. t”, “solidifying. S. aureaus” for “solidifying. E. coli”, “of 10^5” for “of 1×10^5”, “medium were” for “medium was”, “on” for “on to”"}, "TNF-a": {"system": "TNF-a", "conditions": "LPS-induced endotoxemia in rodents; mitigation of circulatory failure and mortality; cited from earlier work"}, "Propionibacterium acnes": {"system": "Propionibacterium acnes", "experiment": "MIC test of P. acnes (broth dilution, OD595)", "assay_type": "cell-based", "design": "key: +: Growth Inhibition; —: No Growth Inhibition", "conditions": "anaerobic, 37° C., 96 hours", "procedure": "Prepared DM stock solution in 500,000 ppm (50%). Added 0.25 g DM into […] DMSO and stirred until mixed well. Then serial diluted 500,000 ppm DM. Centrifuged 5 ml Propionibacterium acnes in RCM (Reinforced Clostridial Medium) culture. Adjusted concentration of bacteria cell in medium by 20 times dilution about OD595=0.1×10^6 CFU/ml. Dispersed 200 μl bacteria cell in medium in aliquot to each 96-well plate. Mixed medium including bacteria cell and 2 μl DM, triplicate tests at each concentration. Bacteria cultured under anaerobic at 37° C. for 96 hours and measured the value at OD595. MIC meant the lowest concentration of anti-bacterial agent that sufficient to suppress the growth of bacteria (e.g. growth inhibition)."}}, "data": [{"smiles": "COc1ccc2c(c1)[C@]13CCCC[C@@H]1[C@H](C2)N(C)CC3", "note": "[DM, (+)-3-methoxy-17-methyl-9a,13a,14a-morphinan]", "values": [{"measurement": "concentration of IL-6 in the medium of THP-1 cells after LPS stimulation", "setting": "IL-6", "result": "significantly reduced"}, {"measurement": "Diameter of clear zone", "setting": "P. acnes; 2.5% DM, Disc No. 6, anaerobic", "result": 12, "unit": "mm"}, {"measurement": "Diameter of clear zone", "setting": "P. acnes; 5% DM, Disc No. 5, anaerobic", "result": 34, "unit": "mm"}, {"measurement": "concentration of MCP-1 in the medium of THP-1 cells after LPS stimulation", "setting": "MCP-1", "result": "significantly reduced"}, {"measurement": "well tolerated oral dosage", "setting": "[1]", "result": "up to 120 milligrams (mg) per day"}, {"measurement": "Growth Inhibition", "setting": "Bacteroides fragilis; DM 500 ppm (0.05%)", "result": "—"}, {"measurement": "Growth Inhibition", "setting": "Bacteroides fragilis; DM 1000 ppm (0.1%)", "result": "—"}, {"measurement": "Growth Inhibition", "setting": "Bacteroides fragilis; DM 1250 ppm (0.125%)", "result": "+"}, {"measurement": "Growth Inhibition", "setting": "Bacteroides fragilis; DM 2500 ppm (0.25%)", "result": "+"}, {"measurement": "Growth Inhibition", "setting": "Bacteroides fragilis; DM 5000 ppm (0.5%)", "result": "+"}, {"measurement": "concentration at which the inflammatory reaction can be inhibited", "setting": "TNF-α; THP-1 cell treated with LPS for 24 hrs, TNF-α and IL-6 released in medium measured with ELISA", "result": "less than 0.01 μM"}, {"measurement": "concentration of TNF-α in the medium of THP-1 cells after LPS stimulation", "setting": "TNF-α", "result": "significantly reduced"}, {"measurement": "Diameter of clear zone", "setting": "E. coli; 2.5% DM", "result": 9.5, "unit": "mm"}, {"measurement": "Diameter of clear zone", "setting": "E. coli; 5% DM", "result": 13, "unit": "mm"}, {"measurement": "Diameter of clear zone", "setting": "E. coli; 10% DM", "result": 18, "unit": "mm"}, {"measurement": "Diameter of clear zone", "setting": "Staphylococcus aureaus; 5% DM", "result": 10, "unit": "mm"}, {"measurement": "Diameter of clear zone", "setting": "Staphylococcus aureaus; 10% DM", "result": 14, "unit": "mm"}, {"measurement": "effect on TNF-a, NO and superoxide anion", "setting": "TNF-a", "result": "inhibits"}, {"measurement": "Growth Inhibition", "setting": "Propionibacterium acnes; DM 125 ppm (0.0125%)", "result": "—"}, {"measurement": "Growth Inhibition", "setting": "Propionibacterium acnes; DM 250 ppm (0.025%)", "result": "—"}, {"measurement": "Growth Inhibition", "setting": "Propionibacterium acnes; DM 500 ppm (0.05%)", "result": "+"}, {"measurement": "Growth Inhibition", "setting": "Propionibacterium acnes; DM 1000 ppm (0.1%)", "result": "+"}, {"measurement": "Growth Inhibition", "setting": "Propionibacterium acnes; DM 1250 ppm (0.125%)", "result": "+"}, {"measurement": "Growth Inhibition", "setting": "Propionibacterium acnes; DM 2500 ppm (0.25%)", "result": "+"}, {"measurement": "Growth Inhibition", "setting": "Propionibacterium acnes; DM 5000 ppm (0.5%)", "result": "+"}]}, {"smiles": "Oc1cc(Cl)ccc1Oc1ccc(Cl)cc1Cl", "note": "[Triclosan]", "values": [{"measurement": "Diameter of clear zone", "setting": "P. acnes; 0.1% Triclosan, Disc No. 8, anaerobic", "result": 30, "unit": "mm"}]}, {"smiles": "C=CCN1CC[C@]23c4c5ccc(O)c4O[C@H]2C(=O)CC[C@@]3(O)[C@H]1C5", "note": "[naloxone, 17-allyl-4,5α-epoxy-3,14-dihydroxymorphinan-6-one]", "values": [{"measurement": "concentration of IL-6 in the medium of THP-1 cells after LPS stimulation", "setting": "IL-6", "result": "significantly reduced"}, {"measurement": "concentration of MCP-1 in the medium of THP-1 cells after LPS stimulation", "setting": "MCP-1", "result": "significantly reduced"}, {"measurement": "concentration of TNF-α in the medium of THP-1 cells after LPS stimulation", "setting": "TNF-α", "result": "significantly reduced"}]}]}
